Test results: article PMC9925730, “Controlled sequential in situ self-assembly and disassembly of a fluorogenic cisplatin prodrug for cancer theranostics” (Nature Communications, 2023)
Values joined by “and” are separate entries in the source; they are usually repeats but may differ in a detail not shown here. Identical values can stand only once.

What was measured:
s.c. HeLa tumors [1] = experiment: PA imaging of s.c. HeLa tumors in vivo; design: species or system mice; conditions: i.v., 2 h post-injection
Procedure: (§1) (100 μM, in 200 μL saline). Whole body FL images of mice prior to (pre) and at 1 h, 2 h, 4 h, 8 h post injection of P-CyPt or […] acquired on the IVIS Lumina XR III imaging system, using a 660 nm excitation filter and a 750 ± 50 nm emission filter. Each experiment was conducted in three mice. The FL intensities were quantified by the region of interest (ROI) measurement using Living Image Software (4.5.2, PerkinElmer, MA, U.S.A). […] (500 μM, in 200 μL saline). The PA images of the s.c. HeLa tumors in mice prior to (pre), and at 1, 2, 4 h post injection were captured on the Vevo 2100 LAZR system (FUJIFILM VisualSonics), with excitation at 700 and 750 nm. The PA intensities were quantified by the equipped software.

ALP [2] = target: T1, ALP (Bos taurus, UniProt P19111); experiment: Dephosphorylated efficacy of P-CyPt towards varying concentrations of ALP (NIR fluorescence); format: biochemical
T1 construct: Alkaline phosphatase from bovine; purchased Sigma-Aldrich; host or cells: bovine intestinal mucosa (tissue-derived)

ALP [3] = experiment: as above; format: biochemical; conditions: for Normalized FL intensity: ALP 0 U/L; for normalized signal over time (section 'Supplementary Fig. 2c'), mean of 3: 250 μM
s.c. HeLa tumors [4] = experiment: NIR FL imaging of s.c. HeLa tumors in vivo; design: species or system mice; conditions: i.v. 100 μM, 200 μL
Procedure: as §1

T1 sequence (P19111 20-533): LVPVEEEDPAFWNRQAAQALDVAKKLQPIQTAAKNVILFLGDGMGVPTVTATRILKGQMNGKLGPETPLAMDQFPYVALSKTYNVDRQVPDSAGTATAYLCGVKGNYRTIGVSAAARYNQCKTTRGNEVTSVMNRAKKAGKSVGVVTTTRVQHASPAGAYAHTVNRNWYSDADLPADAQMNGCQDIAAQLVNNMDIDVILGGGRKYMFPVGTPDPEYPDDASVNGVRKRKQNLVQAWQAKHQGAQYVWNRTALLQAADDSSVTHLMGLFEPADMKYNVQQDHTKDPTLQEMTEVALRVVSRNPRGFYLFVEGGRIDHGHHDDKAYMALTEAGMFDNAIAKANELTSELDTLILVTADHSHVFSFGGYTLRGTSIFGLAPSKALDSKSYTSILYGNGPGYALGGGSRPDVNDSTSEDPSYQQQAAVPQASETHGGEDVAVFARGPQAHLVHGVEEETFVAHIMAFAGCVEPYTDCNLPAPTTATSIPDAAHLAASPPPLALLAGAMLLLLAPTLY

## CC1(C)C(/C=C/C2=C3Oc4cc(OP(=O)(O)O)c(Cl)cc4C=C3CCC2)=[N+](CCCNC(=O)[C@@H](Cc2ccccc2)NC(=O)[C@@H](Cc2ccccc2)NC(=O)CCC(=O)[O][Pt]([NH2])([NH2])([OH])([Cl])[Cl])c2ccccc21 [P-CyPt]
s.c. HeLa tumors [1]
  tumor PA intensity at 700 nm higher than with Pt^IVNPs: ~3.4 fold
  tumor PA intensity at 750 nm higher than with Pt^IVNPs: ~4.3 fold
ALP [2]; ALP 5 U/L, 10 min, mean of 3 samples
  Normalized FL intensity: 1.71
ALP [2]; ALP 5 U/L, 10 min, single samples
  Normalized FL intensity: 1.648 and 1.73 and 1.752
ALP [2]; ALP 5 U/L, 12 min, mean of 3 samples
  Normalized FL intensity: 1.864
ALP [2]; ALP 5 U/L, 12 min, single samples
  Normalized FL intensity: 1.757 and 1.865 and 1.97
ALP [2]; ALP 5 U/L, 14 min, mean of 3 samples
  Normalized FL intensity: 1.881
ALP [2]; ALP 5 U/L, 14 min, single samples
  Normalized FL intensity: 1.813 and 1.9087 and 1.922
ALP [2]; ALP 10 U/L, 10 min, mean of 3 samples
  Normalized FL intensity: 2.116
ALP [2]; ALP 10 U/L, 10 min, single samples
  Normalized FL intensity: 2.078 and 2.183 and 2.087
ALP [2]; ALP 10 U/L, 12 min, mean of 3 samples
  Normalized FL intensity: 2.286
ALP [2]; ALP 10 U/L, 12 min, single samples
  Normalized FL intensity: 2.204 and 2.296 and 2.357
ALP [2]; ALP 10 U/L, 14 min, mean of 3 samples
  Normalized FL intensity: 2.562
ALP [2]; ALP 10 U/L, 14 min, single samples
  Normalized FL intensity: 2.47 and 2.6 and 2.617
ALP [2]; ALP 10 U/L, 16 min, mean of 3 samples
  Normalized FL intensity: 2.829
ALP [2]; ALP 10 U/L, 16 min, single samples
  Normalized FL intensity: 2.713 and 2.865 and 2.9087
ALP [2]; ALP 20 U/L, 10 min, mean of 3 samples
  Normalized FL intensity: 2.617
ALP [2]; ALP 20 U/L, 10 min, single samples
  Normalized FL intensity: 2.53 and 2.596 and 2.726
ALP [2]; ALP 20 U/L, 12 min, mean of 3 samples
  Normalized FL intensity: 2.996
ALP [2]; ALP 20 U/L, 12 min, single samples
  Normalized FL intensity: 2.926 and 2.987 and 3.074
ALP [2]; ALP 20 U/L, 14 min, mean of 3 samples
  Normalized FL intensity: 3.404
ALP [2]; ALP 20 U/L, 14 min, single samples
  Normalized FL intensity: 3.322 and 3.383 and 3.5087
ALP [2]; ALP 20 U/L, 16 min, mean of 3 samples
  Normalized FL intensity: 3.783
ALP [2]; ALP 20 U/L, 16 min, single samples
  Normalized FL intensity: 3.7 and 3.73 and 3.917
ALP [2]; ALP 50 U/L, 10 min, mean of 3 samples
  Normalized FL intensity: 3.187
ALP [2]; ALP 50 U/L, 10 min, single samples
  Normalized FL intensity: 3.135 and 3.157 and 3.27
ALP [2]; ALP 50 U/L, 12 min, mean of 3 samples
  Normalized FL intensity: 3.6029
ALP [2]; ALP 50 U/L, 12 min, single samples
  Normalized FL intensity: 3.483 and 3.583 and 3.743
ALP [2]; ALP 50 U/L, 14 min, mean of 3 samples
  Normalized FL intensity: 4.096
ALP [2]; ALP 50 U/L, 14 min, single samples
  Normalized FL intensity: 3.9913 and 4.022 and 4.274
ALP [2]; ALP 50 U/L, 16 min, mean of 3 samples
  Normalized FL intensity: 4.5913
ALP [2]; ALP 50 U/L, 16 min, single samples
  Normalized FL intensity: 4.43 and 4.465 and 4.878
ALP [2]; ALP 100 U/L, 10 min, mean of 3 samples
  Normalized FL intensity: 4.5971
ALP [2]; ALP 100 U/L, 10 min, single samples
  Normalized FL intensity: 4.522 and 4.557 and 4.713
ALP [2]; ALP 100 U/L, 12 min, mean of 3 samples
  Normalized FL intensity: 5.171
ALP [2]; ALP 100 U/L, 12 min, single samples
  Normalized FL intensity: 4.861 and 5.296 and 5.357
ALP [2]; ALP 100 U/L, 14 min, mean of 3 samples
  Normalized FL intensity: 5.964
ALP [2]; ALP 100 U/L, 14 min, single samples
  Normalized FL intensity: 5.887 and 5.948 and 6.057
ALP [2]; ALP 100 U/L, 16 min, mean of 3 samples
  Normalized FL intensity: 6.53
ALP [2]; ALP 100 U/L, 16 min, single samples
  Normalized FL intensity: 6.426 and 6.513 and 6.652
ALP [2]; ALP 200 U/L, 10 min, mean of 3 samples
  Normalized FL intensity: 5.588
ALP [2]; ALP 200 U/L, 10 min, single samples
  Normalized FL intensity: 5.343 and 5.613 and 5.8087
ALP [2]; ALP 200 U/L, 12 min, mean of 3 samples
  Normalized FL intensity: 6.483
ALP [2]; ALP 200 U/L, 12 min, single samples
  Normalized FL intensity: 6.217 and 6.557 and 6.674
ALP [2]; ALP 200 U/L, 14 min, mean of 3 samples
  Normalized FL intensity: 6.862
ALP [2]; ALP 200 U/L, 14 min, single samples
  Normalized FL intensity: 6.857 and 6.626 and 7.104
ALP [2]; ALP 500 U/L, 10 min, mean of 3 samples
  Normalized FL intensity: 6.133
ALP [2]; ALP 500 U/L, 10 min, single samples
  Normalized FL intensity: 5.804 and 6.287 and 6.3087
ALP [2]; ALP 500 U/L, 12 min, mean of 3 samples
  Normalized FL intensity: 6.81
ALP [2]; ALP 500 U/L, 12 min, single samples
  Normalized FL intensity: 6.661 and 6.722 and 7.048
ALP [2]; ALP 500 U/L, 14 min, mean of 3 samples
  Normalized FL intensity: 7.207
ALP [2]; ALP 500 U/L, 14 min, single samples
  Normalized FL intensity: 6.848 and 7.161 and 7.613
ALP [3]; 0 min, mean of 3 samples
  Normalized FL intensity: 1.022
ALP [3]; 0 min, single samples
  Normalized FL intensity: 0.9783 and 1.039 and 1.048
ALP [3]; 2 min, mean of 3 samples
  Normalized FL intensity: 1.026
ALP [3]; 2 min, single samples
  Normalized FL intensity: 0.9783 and 1.057 and 1.043
ALP [3]; 4 min, mean of 3 samples
  Normalized FL intensity: 1.02
ALP [3]; 4 min, single samples
  Normalized FL intensity: 1.0087 and 1.035 and 1.017
ALP [3]; 6 min, mean of 3 samples
  Normalized FL intensity: 1.039
ALP [3]; 6 min, single samples
  Normalized FL intensity: 1.087 and 1.03 and 1
ALP [3]; 8 min, mean of 3 samples
  Normalized FL intensity: 1.032
ALP [3]; 8 min, single samples
  Normalized FL intensity: 1.087 and 1.013 and 0.9957
ALP [3]; 10 min, mean of 3 samples
  Normalized FL intensity: 1.035
ALP [3]; 10 min, single samples
  Normalized FL intensity: 1.083 and 1.017 and 1.004
ALP [3]; 12 min, mean of 3 samples
  Normalized FL intensity: 1.029
ALP [3]; 12 min, single samples
  Normalized FL intensity: 1.083 and 1.004 and 1
ALP [3]; 14 min, mean of 3 samples
  Normalized FL intensity: 1.014
ALP [3]; 14 min, single samples
  Normalized FL intensity: 1.065 and 0.9957 and 0.9826
ALP [3]; 16 min, mean of 3 samples
  Normalized FL intensity: 1.013
ALP [3]; 16 min, single samples
  Normalized FL intensity: 1.057 and 0.9957 and 0.987
ALP [3]; 18 min, mean of 3 samples
  Normalized FL intensity: 1.0087
ALP [3]; 18 min, single samples
  Normalized FL intensity: 1.048 and 1 and 0.9783
ALP [3]; 20 min, mean of 3 samples
  Normalized FL intensity: 1.016
ALP [3]; 20 min, single samples
  Normalized FL intensity: 1.039 and 0.9913 and 1.017
ALP [3]; 22 min, mean of 3 samples
  Normalized FL intensity: 1.023
ALP [3]; 22 min, single samples
  Normalized FL intensity: 1.104 and 0.9913 and 0.9739
ALP [3]; 24 min, mean of 3 samples
  Normalized FL intensity: 1
ALP [3]; 24 min, single samples
  Normalized FL intensity: 1.039 and 0.9957 and 0.9652
ALP [3]; 26 min, mean of 3 samples
  Normalized FL intensity: 1.0029
ALP [3]; 26 min, single samples
  Normalized FL intensity: 1.035 and 1.004 and 0.9696
ALP [3]; 28 min, mean of 3 samples
  Normalized FL intensity: 1.014
ALP [3]; 28 min, single samples
  Normalized FL intensity: 1.026 and 0.9913
ALP [3]; 30 min, mean of 3 samples
  Normalized FL intensity: 1.00E+00
ALP [3]; 30 min, single samples
  Normalized FL intensity: 1.04E+00 and 9.91E-01 and 0.9783
ALP [3]; time 200 min
  normalized signal over time (section 'Supplementary Fig. 2c'), mean of 3: 0.9941
ALP [3]; time 220 min
  normalized signal over time (section 'Supplementary Fig. 2c'), mean of 3: 0.9946
ALP [3]; time 240 min
  normalized signal over time (section 'Supplementary Fig. 2c'), mean of 3: 0.9956
ALP [3]; time 300 min
  normalized signal over time (section 'Supplementary Fig. 2c'), mean of 3: 0.9969
ALP [3]; time 340 min
  normalized signal over time (section 'Supplementary Fig. 2c'), mean of 3: 0.9978
ALP [3]; time 360 min
  normalized signal over time (section 'Supplementary Fig. 2c'), mean of 3: 0.9982
ALP [3]; time 380 min
  normalized signal over time (section 'Supplementary Fig. 2c'), mean of 3: 0.998
ALP [3]; time 400 min
  normalized signal over time (section 'Supplementary Fig. 2c'), mean of 3: 0.9983
ALP [3]; time 420 min
  normalized signal over time (section 'Supplementary Fig. 2c'), mean of 3: 0.9984
ALP [3]; time 460 min
  normalized signal over time (section 'Supplementary Fig. 2c'), mean of 3: 0.9985
ALP [3]; time 480 min
  normalized signal over time (section 'Supplementary Fig. 2c'), mean of 3: 0.9989
ALP [3]; time 500 min
  normalized signal over time (section 'Supplementary Fig. 2c'), mean of 3: 0.9986
ALP [3]; time 520 min
  normalized signal over time (section 'Supplementary Fig. 2c'), mean of 3: 0.9984
ALP [3]; time 540 min
  normalized signal over time (section 'Supplementary Fig. 2c'), mean of 3: 0.9984
ALP [3]; time 560 min
  normalized signal over time (section 'Supplementary Fig. 2c'), mean of 3: 0.9984
ALP [3]; time 580 min
  normalized signal over time (section 'Supplementary Fig. 2c'), mean of 3: 0.9984
ALP [3]; time 600 min
  normalized signal over time (section 'Supplementary Fig. 2c'), mean of 3: 0.9984
s.c. HeLa tumors [4]; 1 h
  quantified FL intensity of HeLa tumors (Fig. 4c): 1130000000
s.c. HeLa tumors [4]; 2 h
  quantified FL intensity of HeLa tumors (Fig. 4c): 1040000000
s.c. HeLa tumors [4]; 4 h
  quantified FL intensity of HeLa tumors (Fig. 4c): 886000000
